Consider one compound from article PMC7228900, “From sequence to function: a new workflow for nitrilase identification” (Applied Microbiology and Biotechnology, 2020).

The term Km denotes the substrate concentration at which the rate is half of its maximum.

SMILES strings stand for the structures.

The experiment has as its system T1, Nit09.
T1 construct: His6-tagged, expressed in E. coli TOP10 from pBAD18, Ni-TED purified; gene 1005 bp
Kind of experiment: GDH-coupled NADH oxidation at […] nm, Michaelis-Menten fit. The experiment is classed as biochemical, uncultured bacterium. The settings on record: 37 °C, 0.1 M HEPES pH 8.0; fit up to 6 mM, substrate inhibition above 10 mM.

Regarding `N#CCc1ccccc1` [phenylacetonitrile], the Km came to 1290 µM.
